Consider five compounds from patent publication US9150531B2, “Tricyclic lactones for treatment of cancer” (Glactone Pharma Development AB, priority 2010, dated 2015).

Experiment [1] deals with STAT-3 transcription factor. Briefly: STAT3 inhibition, luciferase reporter (4xM67 pTATA TK-Luc) in HeLa cells stimulated with γ-Interferon. In kind it is cell-based. The note with it: γ-Interferon 8 h, luciferase activity, read-out: Anti STAT3 IC50. As for the experimental part: HeLa cells (4×10^4/ml) were transiently transfected with a luciferase reporter plasmid (4×M67 pTATA TK-Luc) driven by artificial promoter containing 4 repeated M67 binding sites in tandem for the STAT-3 transcription factor. The transfections were performed for 24 h using Roti-Fect reagent (Carl Roth, Karlsruhe, Germany) according to the manufacturer's recommendations. After incubation with different concentrations of the extracts for 30 min the transfected cells were stimulated for 8 h with γ-Interferon. Then, the cells were lysed in 25 mM Tris-phosphate pH 7.8, 8 mM MgCl2, 1 mM DTT, 1% Triton X-100, and 7% glycerol. Luciferase activity was measured as described for 5.1 cells.
γ-Interferon induces an average of 5-6 fold induction of the luciferase activity compared to non stimulated cells and this represent the index of transactivation that is represented in our experiment as the maximum levels of γ-Interferon-induced STAT-3 activation (100%). Results below represent the IC50 for each compound in this assay. The IC50 means the concentration of each compound that reduces luciferase activity by 50% and it was calculated by GraphPad software.
On the technique in general: A reporter such as luciferase makes a cellular process visible.

A further experiment has as its system LNCaP-IL6 cells. The experiment is described as follows: WST-1 proliferation assay, LNCaP-IL6 cells. Type of experiment: cell-based, human. As for the experimental part: (§1) The human prostate cancer cell lines DU145, LNCaP (from the American Type culture Collection, ATCC) and long-term interleukin-6 (IL-6) stimulated LNCaP cells (LNCaP-IL6 cells) (Hobisch, Ramoner et al. 2001) were used. The cells were cultured in RPMI 1640 medium supplemented with 10% FBS and 1% penicillin-streptomycin. All cells were incubated at 37° C. in a humidified atmosphere of […] and 5% CO2.
(§2) WST-1 proliferation assay was performed to study the effects of the test items on the proliferation and viability of cultured prostate cancer cells. LNCaP and DU145 cells were cultured in 96-well plates at the density of 2 000 cells/well in 200 μl of medium. Cells were allowed to set for 24 h. The cells were treated with 0, 2.5, 5 or 10 μM of the specific substance for 24 h and 48 h. Samples were made in triplicate. 20 μl WST-1 solution (Roche Applied Science, Mannheim, Germany) was added per well and incubated at 37° C. for 4 h. The absorbance of each well was measured using a scanning multiwell spectrophotometer, ELISA reader at a wavelength of 450 nm and reference wavelength of 690 nm. The results are presented as percent of untreated control cells or the absorbance value.
(In general: Tetrazolium assays rely on reduction of a dye to a coloured formazan, in cell work by metabolically active cells.)

In experiment [2] the test system is DU145. The experiment is described as follows: WST-1 proliferation assay, DU145 cells (Example 16). In kind it is cell-based, human. Here is the method:
as §1, §2

The subject of the next experiment is NF-κB. Briefly: NF-κB-dependent transcriptional activity, Jurkat-LTR-Luc (Jurkat 5.1) cells stimulated with TNF-α. Type of experiment: cell-based. The note with it: TNF-α (2 ng/ml) 6 h, luciferase activity, read-out: IC50 anti-NF-κB. Here is the method: The potency of (−)-Galiellalactone and compound examples of the invention in inhibiting NF-κB-dependent transcriptional activity was assayed in a Jurkat-LTR-Luc cell line. This cellular model have been widely used for the screening of natural and synthetic NF-κB inhibitors (Appendino et al, J Nat Prod. 2007, 70(4), 608-612; J Nat Prod. 2006, 69(7), 1101-1104; Marquez et al, Antiviral Res. 2005, 66(2-3), 137-145) Jurkat 5.1 cells were preincubated for 30 min with increasing concentrations of the compounds dissolved in DMSO followed by stimulation with TNF-α (2 ng/ml) for 6 h. Cells were washed twice in PBS and lysed in 25 mM Tris-phosphate, pH 7.8, 8 mM MgCl2, 1 mM DTT, 1% Triton X-100, and 7% glycerol for 15 min at room temperature. Then the lysates were spun down and the supernatant was used to measure luciferase activity using an Autolumat LB 9510 (Berthold Technologies). Protein concentration was determined by the Bradford method (Bio-Rad, Richmond, Calif.). Results below represent the 1050 for each compound in this assay.

Another experiment concerns IL-6/STAT3 signaling. The note with it: background statement; cited from earlier work.
In experiment [3] the test system is DU145. The experiment is described as follows: WST-1 proliferation assay, DU145 cells (Example 17). In kind it is cell-based, human. Here is the method:
The human prostate cancer cell line DU145 was used. The cells were cultured in RPMI 1640 medium supplemented with 10% FBS and 1% penicillin-streptomycin. All cells were incubated at 37° C. in a humidified atmosphere of […] and 5% CO2.
WST-1 proliferation assay was performed to study the effects of the test items on the proliferation and viability of cultured prostate cancer cells. DU145 cells were cultured in 96-well plates at the density of 2 000 cells/well in 200 μl of medium. Cells were allowed to set for 24 h and 48 h. The cells were treated with 0.5, 1.0, 2.5, 5.0, 10, and 50 μM of the specific substance for 24 h and 48 h. Samples were made in triplicate. 20 μl WST-1 solution (Roche Applied Science, Mannheim, Germany) was added per well and incubated at 37° C. for 4 h. The absorbance of each well was measured using a scanning multiwell spectrophotometer, ELISA reader at a wavelength of 450 nm and reference wavelength of 690 nm. The results are presented as percent of untreated control cells or the absorbance value.

Experiment [4] has as its system DU145. The description is as above. As to conditions: 25.0 μM. In kind it is cell-based, human.

Each structure is given as a SMILES string. Read-outs that look alike come from different tables or passages of the source.

For the compound `C[C@@H]1C=C2C(=O)O[C@@H]3CC[C@H](C1)C23O` (single isomer, unassigned; (-)) [(−)-Galiellalactone, reference compound], the IC50 – broadly, the concentration that gives 50% inhibition – was 7.7 µM in experiment [1] and 5.5 µM in the experiment on NF-κB. For the same compound, the entries for the “% Proliferation (vs control) 24 h LNCaP-IL6” value with LNCaP-IL6 cells (2.5 uM), in the experiment on LNCaP-IL6 cells (5 uM) and in the experiment with LNCaP-IL6 cells (10 uM) were 90.91%, 68.76% and 77.11%, respectively. Besides, the entries for the “% Proliferation (vs control) 48 h LNCaP-IL6” value in the experiment with LNCaP-IL6 cells (2.5 uM), in the experiment on LNCaP-IL6 cells (5 uM) and in the experiment on LNCaP-IL6 cells (10 uM) were 96.78%, 68.76% and 23.22%, respectively. Besides, the “% Proliferation (vs control) 24 h DU145” value in the experiment on DU145 [2] (2.5 uM) came to 84.24%; in the experiment with DU145 [2] (5 uM), 63.19%; in the experiment on DU145 [2] (10 uM), 48.44%. Also, the “% Proliferation (vs control) 48 h Du145” value with DU145 [2] (2.5 uM) worked out at 76.36%; with DU145 [2] (5 uM) it was 38.51%; with DU145 [2] (10 uM), 22.24%. For the same compound, in the experiment on IL-6/STAT3 signaling, the “inhibition of IL-6/STAT3 signaling” value was “submicromolar”.

Turning to `O=C1O[C@@H]2[C@H](Cc3ccccc3)C[C@@H]3CCC=C1[C@@]32O` (stereo in doubt) [Example 6, 5,5a,6,7,7a,7b-hexahydro-7b-hydroxy-7-benzyl-indeno[1,7-bc]furan-2(4H)-one], the “Proliferation (vs control) Du145 (%) 24 h” value in the experiment on DU145 [3] (0.5 μM) came to 110.14%; with DU145 [3] (1.0 μM), 98.76%; with DU145 [3] (2.5 μM) it was 104.13%; in the experiment on DU145 [3] (5.0 μM) it was 81.25%; with DU145 [3] (10.0 μM), 43.88%; in the experiment with DU145 [3] (50.0 μM), 23.59%. Also, the “Proliferation (vs control) Du145 (%) 24 h” value in the experiment with DU145 [4] (24 h) is on record as 45.01%. The “Proliferation (vs control) Du145 (%) 48 h” value with DU145 [3] (0.5 μM) was 121.11%; in the experiment on DU145 [3] (1.0 μM), 120.77%; with DU145 [3] (2.5 μM), 101.61%; with DU145 [3] (5.0 μM), 78.86%; in the experiment with DU145 [3] (10.0 μM), 42.70%; in the experiment with DU145 [3] (50.0 μM), 9.88%. Further, the “Proliferation (vs control) Du145 (%) 48 h” value in the experiment on DU145 [4] (48 h) is reported as 23.80%.

With `C[C@H]1C=C2C(=O)OC3C(C)(C)C[C@H](C1)[C@]23O` (some centres unmarked) [Example 1, 2a^1-hydroxy-4,7,7-trimethyl-4,5,5a,6,7,7a-hexahydroindeno[1,7-bc]furan-2(2a^1H)-one], the IC50 is 2.1 µM in experiment [1] (Homo sapiens) and 2.66 µM in the experiment with NF-κB (Homo sapiens). The “% Proliferation (vs control) 24 h LNCaP-IL6” value with LNCaP-IL6 cells (2.5 uM) stood at 65.41%; with LNCaP-IL6 cells (5 uM), 68.95%; in the experiment with LNCaP-IL6 cells (10 uM), 69.23%. Besides, the “% Proliferation (vs control) 48 h LNCaP-IL6” value stood at 52.42% with LNCaP-IL6 cells (2.5 uM), 26.28% in the experiment on LNCaP-IL6 cells (5 uM) and 16.19% in the experiment on LNCaP-IL6 cells (10 uM). Further, the entries for the “% Proliferation (vs control) 24 h DU145” value in the experiment on DU145 [2] (2.5 uM), in the experiment with DU145 [2] (5 uM) and in the experiment on DU145 [2] (10 uM) were 80.19%, 68.82% and 54.07%, respectively. Besides, the results for the “% Proliferation (vs control) 48 h Du145” value with DU145 [2] (2.5 uM), in the experiment on DU145 [2] (5 uM) and in the experiment on DU145 [2] (10 uM) were 67.45%, 35.62% and 22.77%, respectively.

Consider `C[C@H]1C=C2C(=O)OC3[C@H](c4ccccc4)C[C@H](C1)[C@]23O` (some centres unmarked) [Example 2, 2a^1-hydroxy-4-methyl-7-phenyl-4,5,5a,6,7,7a-hexahydroindeno[1,7-bc]furan-2(2a^1H)-one], for which the IC50 in experiment [1] (Homo sapiens) stood at 1.18 µM; with NF-κB (Homo sapiens), 0.33 µM. Besides, the entries for the “% Proliferation (vs control) 24 h LNCaP-IL6” value with LNCaP-IL6 cells (2.5 uM), in the experiment on LNCaP-IL6 cells (5 uM) and with LNCaP-IL6 cells (10 uM) were 81.79%, 81.21% and 70.45%, respectively. For the same compound, the “% Proliferation (vs control) 48 h LNCaP-IL6” value worked out at 79.56% in the experiment on LNCaP-IL6 cells (2.5 uM), 57.14% in the experiment on LNCaP-IL6 cells (5 uM) and 20.19% in the experiment with LNCaP-IL6 cells (10 uM). Also, the “% Proliferation (vs control) 24 h DU145” value turned out to be 90.64% with DU145 [2] (2.5 uM), 68.55% in the experiment with DU145 [2] (5 uM) and 63.86% in the experiment on DU145 [2] (10 uM). In addition, the “% Proliferation (vs control) 48 h Du145” value in the experiment with DU145 [2] (2.5 uM) was 68.04%; with DU145 [2] (5 uM) it was 34.07%; in the experiment with DU145 [2] (10 uM) it was 30.26%.

For the compound `C[C@H]1C=C2C(=O)OC3[C@H](Cc4ccccc4)C[C@H](C1)[C@]23O` (some centres unmarked) [Example 3, 7-benzyl-2a^1-hydroxy-4-methyl-4,5,5a,6,7,7a-hexahydroindeno[1,7-bc]furan-2(2a^1H)-one], the results for the IC50 (in experiment [1] (Homo sapiens); with NF-κB (Homo sapiens)) were 2.87 µM and 1.26 µM, respectively. Moreover, the “% Proliferation (vs control) 24 h LNCaP-IL6” value is 57.10% in the experiment with LNCaP-IL6 cells (2.5 uM), 59.00% in the experiment with LNCaP-IL6 cells (5 uM) and 53.01% with LNCaP-IL6 cells (10 uM). The “% Proliferation (vs control) 48 h LNCaP-IL6” value in the experiment on LNCaP-IL6 cells (2.5 uM) came to 27.82%; in the experiment on LNCaP-IL6 cells (5 uM) it was 18.15%; with LNCaP-IL6 cells (10 uM) it was 12.49%. For the same compound, the “% Proliferation (vs control) 24 h DU145” value with DU145 [2] (2.5 uM) came out at 56.33%; in the experiment with DU145 [2] (5 uM), 52.11%; with DU145 [2] (10 uM), 44.48%. The “% Proliferation (vs control) 48 h Du145” value in the experiment with DU145 [2] (2.5 uM) is listed as 31.10%; with DU145 [2] (5 uM), 18.38%; with DU145 [2] (10 uM), 14.45%.
